The values that follow come from patent publication US20230053437A1, “LIPID COMPOUNDS AND LIPID NANOPARTICLE COMPOSITIONS” (Suzhou Abogen Biosciences Co., Ltd., priority 2020, published 2023).

What all share (assay type): physicochemical
Data set [1] in a line: Encapsulation efficiency of lipid nanoparticles, Quant-it Ribogreen RNA quantification assay. The following applies: LNP with hEPO mRNA. Here is the method: (§1) Briefly, a cationic lipid provided herein, DSPC, cholesterol, and PEG-lipid were solubilized in ethanol at a molar ratio of 50:10:38.5:1.5, and mRNA were diluted in 10 to 50 mM citrate buffer, pH=4. The LNPs were prepared at a total lipid to mRNA weight ratio of approximately 10:1 to 30:1 by mixing the ethanolic lipid solution with the aqueous mRNA solution at a volume ratio of 1:3 using a microfluidic apparatus, total flow rate ranging from 9-30 mL/min. Ethanol were thereby removed and replaced by DPBS using dialysis. Finally, the lipid nanoparticles were filtered through a […] sterile filter.
(§2) Lipid nanoparticle size were determined by dynamic light scattering using a Malvern Zetasizer Nano ZS (Malvern UK) using a 173° backscatter detection mode. The encapsulation efficiency of lipid nanoparticles were determined using a Quant-it Ribogreen RNA quantification assay kit (Thermo Fisher Scientific, UK) according to the manufacturer's instructions.

A short description of data set [2]: Apparent pKa of LNP formulations, TNS fluorescence assay. Conditions: LNP cationic lipid/DSPC/cholesterol/DMG-PEG 50/10/38.5/1.5 mol %, pH 3 to 9. Here is the method:
As reported in literature, the apparent pKa of LNP formulations correlates with the delivery efficiency of LNPs for nucleic acids in vivo. The apparent pKa of each formulation was determined using an assay based on fluorescence of 2-(p-toluidino)-6-napthalene sulfonic acid (TNS). LNP formulations comprising of cationic lipid/DSPC/cholesterol/DMG-PEG (50/10/38.5/1.5 mol %) in PBS were prepared as described above. TNS was prepared as a 300 uM stock solution in distilled water. LNP formulations were diluted to 0.1 mg/ml total lipid in 3 mL of buffered solutions containing 50 mM sodium citrate, 50 mM sodium phosphate, 50 mM sodium borate, and 30 mM sodium chloride where the pH ranged from 3 to 9. An aliquot of the TNS solution was added to give a final concentration of 0.1 mg/ml and following vortex mixing fluorescence intensity was measured at room temperature in a Molecular Devices Spectramax iD3 spectrometer using excitation and mission wavelengths of 325 nm and 435 nm. A sigmoidal best fit analysis was applied to the fluorescence data and the pKa value was measured as the pH giving rise to half-maximal fluorescent intensity.

Data set [3] is described as follows: Lipid nanoparticle size by dynamic light scattering (Malvern Zetasizer Nano ZS). The following applies: LNP: cationic lipid/DSPC/cholesterol/PEG-lipid 50:10:38.5:1.5 with hEPO mRNA. How it is done: as §1, §2

Consider `CCCCCCCCCCCC(=O)OCC1(COC(=O)CCCCCCCCCCC)CCN(C(=O)CCN2CCCCC2)CC1` [Compound 6], for which the “Encapsulation Efficiency” value in data set [1] was determined as 89.2%. The “Apparant Pka” value in data set [2] is listed as 6.85. In data set [3], the polydispersity came out at 0.064 and the “size (nm)” value worked out at 100 nm.
As for `CCCCCCCCCCCC(=O)OCC1(COC(=O)CCCCCCCCCCC)CCN(C(=O)CCCN2CCCC2)CC1` [Compound 39], in data set [1], the “Encapsulation Efficiency” value was found to be 97.0%. Moreover, the “Apparant Pka” value in data set [2] is listed as 13.20. In data set [3], the polydispersity amounted to 0.42 and the “size (nm)” value came to 89.41 nm.
The corresponding values for `CCCCCCCCCCCC(=O)OCC1(COC(=O)CCCCCCCCCCC)CCN(C(=O)CCN2CCOCC2)CC1` [Compound 10] are 82.5%, 6.81, 0.135 and 67.82 nm.
For `CCCCCCCCCCCC(=O)OCC1(COC(=O)CCCCCCCCCCC)CCN(C(=O)CCN(C)CCO)CC1` [Compound 2], the “Encapsulation Efficiency” value in data set [1] was found to be 92.5%. Further, in data set [2], the “Apparant Pka” value came out at 7.29. For the same compound, in data set [3], the polydispersity is 0.079 and the “size (nm)” value turned out to be 80.24 nm.
On to `CCCCCCCCCCCC(=O)OCC1(COC(=O)CCCCCCCCCCC)CCN(C(=O)CCN(C)CCCn2ccc(N)nc2=O)CC1` [Compound 14], for which the “Encapsulation Efficiency” value in data set [1] was determined as 92.5%. Further, in data set [2], the “Apparant Pka” value came to 8.22. Further, in data set [3], the polydispersity was found to be 0.092 and the “size (nm)” value stood at 67.29 nm.
The corresponding values for `CCCCCCCCCCCC(=O)OCC1(COC(=O)CCCCCCCCCCC)CCN(C(=O)CCCN2CCOCC2)CC1` [Compound 43] are 69.9%, 6.83, 0.214 and 89.71 nm.
The corresponding values for `CCCCCCCCCCCC(=O)OCC1(COC(=O)CCCCCCCCCCC)CCN(C(=O)CCN(CCCCCC)CCCNc2c(N(C)C)c(=O)c2=O)CC1` [Compound 49] are 95.8%, 4.76, 0.291 and 87.3 nm.
The corresponding values for `CCCCCCCCCCCC(=O)OCC1(COC(=O)CCCCCCCCCCC)CCN(C(=O)CCN(CCO)CCCCCC)CC1` [Compound 26] are 89.7%, 7.57, 0.138 and 91.83 nm.
As for `CCCCCCCCCCCC(=O)OCC1(COC(=O)CCCCCCCCCCC)CCN(C(=O)CCCN(CCC)CCO)CC1` [Compound 36], the “Encapsulation Efficiency” value in data set [1] came out at 93.2%. The “Apparant Pka” value in data set [2] turned out to be 7.84. In data set [3], the polydispersity was found to be 0.095 and the “size (nm)” value was found to be 67.83 nm.
For `CCCCCCCCCCCC(=O)OCC1(COC(=O)CCCCCCCCCCC)CCN(C(=O)CCN2CCCC2)CC1` [Compound 5], in data set [1], the “Encapsulation Efficiency” value turned out to be 95.4%. In addition, the “Apparant Pka” value in data set [2] turned out to be 7.67. Besides, in data set [3], the polydispersity was found to be 0.112 and the “size (nm)” value stood at 69.83 nm.
For `CCCCCCCCCCCC(=O)OCC1(COC(=O)CCCCCCCCCCC)CCN(CCCCCCO)CC1` [Compound 21], in data set [1], the “Encapsulation Efficiency” value is reported as 73.2%. Moreover, the “Apparant Pka” value in data set [2] is reported as 6.71. Besides, in data set [3], the polydispersity stood at 0.198 and the “size (nm)” value is 127.8 nm.
In the case of `CCCCCCCCCCCC(=O)OCC1(COC(=O)CCCCCCCCCCC)CCN(C(=O)CCN(CCO)C(C)C)CC1` [Compound 23], the “Encapsulation Efficiency” value in data set [1] was 93.0%. The “Apparant Pka” value in data set [2] is 7.68. Besides, in data set [3], the polydispersity was 0.078 and the “size (nm)” value came out at 77.29 nm.
The corresponding values for `CCCCC/C=C\C/C=C\CCCCCCCC(=O)OCC1(COC(=O)CCCCCCC/C=C\C/C=C\CCCCC)CCN(C(=O)CCN2CCCC2)CC1` [Compound 50] are 97.8%, 10.76, 0.327 and 86.44 nm.
The corresponding values for `CCCCCCCCCCCC(=O)OCC1(COC(=O)CCCCCCCCCCC)CCN(C(=O)CCN(CCO)CCO)CC1` [Compound 4] are 92.8%, 7.18, 0.199 and 64.29 nm.
The corresponding values for `CCCCCCCCCCCC(=O)OCC1(COC(=O)CCCCCCCCCCC)CCN(C(=O)CCCN(C)C)CC1` [Compound 38] are 93.5%, 7.85, 0.104 and 73.39 nm.
For the compound `CCCCCCCCC(CCCCCC)COC(=O)CCCCCC(=O)OCC1(COC(=O)CCCCCC(=O)OCC(CCCCCC)CCCCCCCC)CCN(C(=O)CCCN2CCCC2)CC1` (stereo not drawn) [Compound 58], in data set [1], the “Encapsulation Efficiency” value was 102.4%. Moreover, the “Apparant Pka” value in data set [2] is 13.72. For the same compound, in data set [3], the polydispersity came to 0.356 and the “size (nm)” value is on record as 97.85 nm.
The corresponding values for `CCCCCCCCCCCC(=O)OCC1(COC(=O)CCCCCCCCCCC)CCN(C(=O)CCN(CCCCC)CCCNc2c(N(C)C)c(=O)c2=O)CC1` [Compound 48] are 98.3%, 7.17, 0.133 and 85.67 nm.
The corresponding values for `CCCCCCCCCCCC(=O)OCC1(COC(=O)CCCCCCCCCCC)CCN(CCO)CC1` [Compound 1] are 98.8%, 7.30, 0.096 and 58.53 nm.
Take `CCCCCCCCCCCC(=O)OCC1(COC(=O)CCCCCCCCCCC)CCN(C(=O)CCN(C)CCCn2cnc3c(N)ncnc32)CC1` [Compound 15]: the “Encapsulation Efficiency” value in data set [1] is on record as 94.2%. For the same compound, in data set [2], the “Apparant Pka” value came to 6.65. For the same compound, in data set [3], the polydispersity was found to be 0.153 and the “size (nm)” value is 63.65 nm.
Turning to `CCCCCCCCCCCC(=O)OCC1(COC(=O)CCCCCCCCCCC)CCN(C(=O)CCCN2CCCCC2)CC1` [Compound 40], the “Encapsulation Efficiency” value in data set [1] amounted to 92.4%. Moreover, the “Apparant Pka” value in data set [2] came out at 9.27. Also, in data set [3], the polydispersity is 0.066 and the “size (nm)” value amounted to 84.7 nm.
In the same order, the values of `CCCCCCCCCCCC(=O)OCC1(COC(=O)CCCCCCCCCCC)CCN(C(=O)CCN(CCO)CCCCC)CC1` [Compound 25] are 89.3%, 7.98, 0.153 and 69.62 nm.
Regarding `CCCCCCCCCCCC(=O)OCC1(COC(=O)CCCCCCCCCCC)CCN(C(=O)CCCN(CC)CCO)CC1` [Compound 35], in data set [1], the “Encapsulation Efficiency” value is 96.0%. In addition, in data set [2], the “Apparant Pka” value was determined as 8.02. In data set [3], the polydispersity is given as 0.261 and the “size (nm)” value is listed as 89.42 nm.
Consider `CCCCCCCCCCCC(=O)OCC1(COC(=O)CCCCCCCCCCC)CCN(C(=O)CCN(CCCCCC)CCCCCC)CC1` [Compound 31], for which, in data set [1], the “Encapsulation Efficiency” value was 92.7%. For the same compound, the “Apparant Pka” value in data set [2] was 6.39. Besides, in data set [3], the polydispersity came out at 0.136 and the “size (nm)” value was 67.72 nm.
With `CCCCCCCCCCCC(=O)OCC1(COC(=O)CCCCCCCCCCC)CCN(C(=O)CCN(CC)CC)CC1` [Compound 27], in data set [1], the “Encapsulation Efficiency” value came out at 93.6%. Moreover, the “Apparant Pka” value in data set [2] is given as 8.27. In data set [3], the polydispersity was determined as 0.11 and the “size (nm)” value turned out to be 71.72 nm.
The corresponding values for `CCCCCCCCCCCC(=O)OCC1(COC(=O)CCCCCCCCCCC)CCN(C(=O)CCN(C)CCCn2ccc(=O)[nH]c2=O)CC1` [Compound 13] are 95.5%, 7.09, 0.127 and 57.44 nm.
The corresponding values for `CCCCCCCCC(CCCCCC)COC(=O)CCCCCC(=O)OCC1(COC(=O)CCCCCC(=O)OCC(CCCCCC)CCCCCCCC)CCN(C(=O)CCN2CCOCC2)CC1` (stereo not drawn) [Compound 55] are 80.6%, 7.25, 0.247 and 81.29 nm.
Turning to `CCCCCCCCC(CCCCCC)COC(=O)CCCCCC(=O)OCC1(COC(=O)CCCCCC(=O)OCC(CCCCCC)CCCCCCCC)CCN(C(=O)CCN(CC)CCO)CC1` (stereo not drawn) [Compound 57], the “Encapsulation Efficiency” value in data set [1] is given as 100.4%. Also, in data set [2], the “Apparant Pka” value was 8.80. For the same compound, in data set [3], the polydispersity is 0.276 and the “size (nm)” value is given as 74.16 nm.
